Assay results as given in ChEMBL document CHEMBL4673320, “Structure Elucidation of the spiro-Polyketide Svalbardine B from the Arctic Fungal Endophyte Poaceicola sp. E1PB with Support from Extensive ESI-MS Interpretation” (J Nat Prod, 2020).
Activity calls are given as the source filed them.

Assays:
Serratia marcescens = experiment: Antibacterial activity against Serratia marcescens ATCC 14756 assessed as reduction in microbial growth at 20 uM after 18 hrs by resazurin based assay; format: functional, organism-based
[1] = tested on: Staphylococcus ureilyticus; experiment: Antibacterial activity against Staphylococcus cohnii subsp. urealyticum assessed as reduction in microbial growth after at 20 uM 18 hrs by resazurin based assay; format: functional
Shigella flexneri = experiment: Antibacterial activity against Shigella flexneri ATCC 12020 assessed as reduction in microbial growth at 20 uM after 18 hrs by resazurin based assay; format: functional, organism-based
[2] = tested on: Staphylococcus haemolyticus; experiment: Antibacterial activity against Staphylococcus haemolyticus ATCC 29970 assessed as reduction in microbial growth at 20 uM after 18 hrs by resazurin based assay; format: functional, organism-based
Yersinia enterocolitica = experiment: Antibacterial activity against Yersinia enterocolitica ATCC 23715 assessed as reduction in microbial growth at 20 uM after 18 hrs by resazurin based assay; format: functional, organism-based
Escherichia coli = experiment: Antibacterial activity against Escherichia coli ATCC 25922 assessed as reduction in microbial growth at 20 uM after 18 hrs by resazurin based assay; format: functional, organism-based
Staphylococcus aureus = experiment: Antibacterial activity against Staphylococcus aureus ATCC 25923 assessed as reduction in microbial growth at 20 uM after 18 hrs by resazurin based assay; format: functional, organism-based
Pseudomonas aeruginosa = experiment: Antibacterial activity against Pseudomonas aeruginosa ATCC 10145 assessed as reduction in microbial growth at 20 uM after 18 hrs by resazurin based assay; format: functional, organism-based
Enterobacter cloacae = experiment: Antibacterial activity against Enterobacter cloacae ATCC 35030 assessed as reduction in microbial growth at 20 uM after 18 hrs by resazurin based assay; format: functional, organism-based
Salmonella typhimurium = experiment: Antibacterial activity against Salmonella typhimurium ATCC 14028 assessed as reduction in microbial growth at 20 uM after 18 hrs by resazurin based assay; format: functional, organism-based; settings: Salmonella enterica subsp. enterica serovar Typhimurium, DT104 ATCC 14028
SH-SY5Y = experiment: Cytotoxicity against human SH-SY5Y cells assessed as reduction in cell viability at 20 uM after 24 hrs by MTT assay; format: functional, cell-based

Measured: Activity

COC(=O)c1cc(OC)cc2c1-c1oc(C)cc(=O)c1CO2
inactive: all assays above

COC(=O)c1cc(OC)cc(O)c1C(=O)C1CC2(CCc3cc(OC)cc(C(=O)OC)c3C2=O)C(=O)C2=C(C)OC(C)=CC21 (stereo unspecified)
inactive: all assays above

CCCc1oc(=O)cc(OC)c1C
inactive: all assays above

C=C1OC(=O)c2c(O)cc(OC)c(C)c2[C@H]1C
inactive: all assays above

COc1cc(=O)oc(C[C@H](C)O)c1C
inactive: all assays above

COc1cc(O)c2c(c1C)[C@@H](C)[C@@](O)(CO)OC2=O
inactive: all assays above
